Test results: publication PMC12502592, “Therapeutic potential of flavonols in the treatment of JCPyV” (Microbiology Spectrum, 2025)

Tests used:
JCPyV [1] = tested on: JCPyV; design: method as in PMID 26600871, PMID 21402853; conditions: relative to cidofovir; cited from earlier work
SVG-A cells = experiment: Viral ToxGlo toxicity assay in SVG-A cells; format: cell-based, human
Method: (§1) SVG-A cells were plated at 5,000 cells per well, and NHAs were plated at 10,000 per well in a Corning 96-well tissue culture-treated plate. The following day, the cells were treated with a twofold dilution series of either quercetin, myricetin, or fisetin, ranging from 20 to 0.15625 µM, in phenol-free media. SVG-A cells were incubated with drug for 72 h in the incubator at 37°C with 5% CO2. NHA cells were incubated with drug for 120 h at 37°C with 5% CO2 to match the exposure times for infection. After incubation, a luciferase-based Viral ToxGlo Assay (Promega) was added to each well according to the manufacturer’s protocol. Viral ToxGlo measures the amount of ATP activity present through a luminescent signal. The cells were incubated with Viral ToxGlo lytic reagent for 10 min at 37°C with 5% CO2. Lysed cell suspension was then transferred to an opaque plate, and luciferase activity was read on the Glomax Multi-detection System (Promega, 0.5 s integration time) and normalized to a vehicle control.

NHA cells = experiment: Viral ToxGlo toxicity assay in NHA cells; format: cell-based, human
Method: as §1

JCPyV [2] = experiment: JCPyV infection assay in SVG-A cells (VP1 indirect immunofluorescence); format: cell-based; conditions: JC polyomavirus, 2 h pretreatment, MOI 10, drug maintained 72 h, normalized to DMSO
Method: (§2) SVG-A cells were plated at 5,000 cells per well, and NHAs were plated at 10,000 per well. The following day, the cells were treated with the above-described dose curve of either quercetin, fisetin, or myricetin, ranging from 10 to 0.15625 µM. A DMSO (vehicle) control that was volume matched to the highest volume of each flavonol was included. The plates were pretreated with drug for 2 h at 37°C with 5% CO2. Next, the cells were incubated in 1× MEM with purified JCPyV (MOI of 10) in the continued presence of either quercetin, myricetin, fisetin, or a DMSO vehicle control matched to the highest concentration of each flavonol. Plates were incubated for 2 h at 37°C with 5% CO2 and rocked every 15 min to ensure homogenous distribution of virus in each well. Virus-containing media were then aspirated and replaced with either quercetin, myricetin, fisetin, or a volume-matched DMSO control in complete media. SVG-A cells were incubated for 72 h in the incubator at 37°C with 5% CO2. Astrocytes were incubated for 120 h at 37°C with 5% CO2. Plates were fixed in 100% ice-cold methanol and quantified using indirect immunofluorescence staining for the late viral protein VP1.
(§3) To quantify the number of infected cells, SVG-A and NHA cells were fixed with ice-cold 100% methanol at −20°C for at least 15 min to permeabilize cells. The cells were rehydrated with 1× phosphate-buffered saline (PBS) for 15 min and rocked at room temperature. […] The cells were imaged on a Ti2-E Inverted Fluorescence Microscope (Nikon) using the 20× objective. For each plate, a random subset of 10 fields was chosen to image per well, and three wells were analyzed per condition. Images were analyzed using Elements High Content Imaging software (Nikon) to count total cells versus VP1+ cells.
(§4) A linear regression between successive points was used to calculate the half maximal inhibitory values (IC50) from the dose curves of each drug. […] Significance was calculated using Student’s two-tailed t-test in GraphPad Prism. […]

JCPyV [3] = experiment: JCPyV infection assay in NHA cells (VP1 indirect immunofluorescence); format: cell-based; conditions: JC polyomavirus, 2 h pretreatment, MOI 10, drug maintained 120 h, normalized to DMSO
Method: as §2, §3, §4

JCPyV [4] = experiment: Infection time course in SVG-A cells; format: cell-based, JC polyomavirus; conditions: 10 µM, added at -2, 0, 2 or 24 h relative to infection, VP1+ at 72 h post-infection
Method: (§5) SVG-A cells were plated at 5,000 cells per well, and NHAs were plated at 10,000 per well in a Corning 96-well tissue culture-treated plate. The following day, the cells were treated at the following four time points: 2 h before infection (−2 h; pretreatment), 0 h (co-treatment at the time of infection), 2 hs after infection (post treatment), or 24 h after infection (post-treatment). At the 2-h pretreatment time point, quercetin, myricetin, fisetin, or a volume-matched DMSO control was added in complete media. For all other time points, complete media were administered as a mock treatment. The plates were incubated for 2 h at 37°C and 5% CO2. At the 0-h time point, purified JCPyV (MOI of 10) in unsupplemented media was added to each of the time points, either alone or in the presence of drug, as appropriate for each treatment condition. In the −2 h and 0 h treated wells, quercetin, myricetin, fisetin, or a volume-matched DMSO control was added as co-treatment. All plates were infected with purified JCPyV at the same time, for 2 h at 37°C and 5% CO2. At the 2-h time point, the virus was aspirated and flavonols in complete media were added to the −2, 0, and 2 h time points. Complete media without drug or vehicle control was administered to the 24-h time point. Twenty-four hours after infection, flavonols were added to the 24-h time point, in complete media. SVG-A cells were incubated at 37°C and 5% CO2 for 72 h after infection, and NHA cells were incubated at 37°C and 5% CO2 for 120 h after infection. Plates were then stained and infection was quantified via indirect immunofluorescence.
as §3, with “cells.” for “cells. The cells were rehydrated with 1× phosphate-buffered saline (PBS) for 15 min and rocked at room temperature.”

JCPyV [5] = experiment: Infection time course in NHA cells; format: cell-based, JC polyomavirus; conditions: added at -2, 0, 2 or 24 h relative to infection, VP1+ at 120 h post-infection
Method: as §5
as §3, with “cells.” for “cells. The cells were rehydrated with 1× phosphate-buffered saline (PBS) for 15 min and rocked at room temperature.”

JCPyV [6] = experiment: Viral spread assay in SVG-A cells; format: cell-based, JC polyomavirus; conditions: 10 µM added 24 h post-infection, VP1+ at 3, 6 and 9 days post-infection, vs DMSO
Method: (§6) For the viral spread assay, the cells were plated at a density of 5,000 cells per well for SVG-A in complete MEM, or 10,000 cells per well for NHA in complete AM, and incubated overnight at 37°C with 5% CO2. The next day, the cells were infected with purified JCPyV (MOI of 10) for 2 h to establish an infection without the presence of drugs. After infection, JCPyV media were aspirated and plates were incubated with complete media as required for each cell type. One day post-infection, the cells were incubated with the highest nontoxic dose (for SVG-A: 10 µM quercetin, 10 µM myricetin, 10 µM fisetin; for NHA: 5 µM quercetin, 10 µM myricetin, 5 µM fisetin) or a volume-matched DMSO control. Plates were incubated at 37°C with 5% CO2 and infection was measured by indirect immunofluorescence quantification at 3, 6, and 9 days post-infection in SVG-As or 5, 10, and 15 days post-infection for NHAs. At every time point, the cells were either fixed in ice-cold methanol or were supplemented with an additional 50 µL of cell media that consisted of the matched concentration of quercetin, fisetin, myricetin, or DMSO vehicle control. Cell counts were obtained by counting the total number of cells in 10 random fields per well (3 wells total per replicate) on the Ti2-E Inverted Fluorescent Microscope (Nikon).
as §3, with “rocked at room temperature. Subsequent permeabilization was conducted with incubation in 1% Triton-X (USB) for 10 min with rocking” for “rocked”

JCPyV [7] = experiment: Viral spread assay in NHA cells; format: cell-based, JC polyomavirus; conditions: VP1+ at 5, 10 and 15 days post-infection, vs DMSO
Method: as §6
as §3, with “rocked at room temperature. Subsequent permeabilization was conducted with incubation in 1% Triton-X (USB) for 10 min with rocking” for “rocked”

[8] = design: method as in PMID 29317180; conditions: amplification of hippocampal long-term potentiation; cited from earlier work
[9] = design: method as in PMID 14980703, PMID 28528183; conditions: U251 cells; cited from earlier work

CCCCCCCCCCCCCCCCOCCCOP(=O)(O)CO[C@H](CO)Cn1ccc(N)nc1=O [Brincidofovir]
concentration reducing JCPyV DNA copy number, fold smaller than cidofovir (JCPyV [1]): 100 ×

O=c1c(O)c(-c2ccc(O)c(O)c2)oc2cc(O)ccc12 [fisetin]
highest nontoxic dose (SVG-A cells; human, 72 h): 10 µM
highest nontoxic dose (NHA cells; human, 120 h): 5 µM
IC50 (JCPyV [2]): 5.76 µM
IC50 (JCPyV [3]): 3.72 µM
inhibition of JCPyV infection by time of addition (JCPyV [4]): inhibited infection at all time points up to and including 24 h post-infection
inhibition of JCPyV infection by time of addition (JCPyV [5]; 5 µM): maintained their ability to inhibit infection even when administered at 24 h post-infection
inhibition of viral spread in established infection (JCPyV [6]): inhibit viral spread in SVG-A cells at 3, 6, and 9 days post-infection
inhibition of viral spread in established infection (JCPyV [7]; 5 µM added 24 h post-infection): significantly reduce JCPyV infection at all time points
crossing of the BBB in vivo [8]: found to cross the BBB in vivo

O=c1c(O)c(-c2cc(O)c(O)c(O)c2)oc2cc(O)cc(O)c12 [myricetin]
highest nontoxic dose (SVG-A cells; SVG-A cells): 10 µM
highest nontoxic dose (NHA cells; NHA cells): 10 µM
IC50 (JCPyV [2]): 8.07 µM
IC50 (JCPyV [3]): 4.47 µM
inhibition of JCPyV infection by time of addition (JCPyV [4]): effective only when given 2 h before infection or at the time of infection
inhibition of JCPyV infection by time of addition (JCPyV [5]; 10 µM): lost by 2 h post-infection
inhibition of viral spread in established infection (JCPyV [6]): no significant reduction in viral spread compared to DMSO control
inhibition of viral spread in established infection (JCPyV [7]; 10 µM added 24 h post-infection): without effect

O=c1c(O)c(-c2ccc(O)c(O)c2)oc2cc(O)cc(O)c12 [quercetin]
highest nontoxic dose (SVG-A cells; SVG-A cells): 10 µM
highest nontoxic dose (NHA cells; NHA cells): 5 µM
IC50 (JCPyV [2]): 6.04 µM
IC50 (JCPyV [3]): 2.51 µM
inhibition of JCPyV infection by time of addition (JCPyV [4]): inhibited infection at all time points up to and including 24 h post-infection
inhibition of JCPyV infection by time of addition (JCPyV [5]; 5 µM): maintained their ability to inhibit infection even when administered at 24 h post-infection
inhibition of viral spread in established infection (JCPyV [6]): inhibit viral spread in SVG-A cells at 3, 6, and 9 days post-infection
inhibition of viral spread in established infection (JCPyV [7]; 5 µM added 24 h post-infection): significantly reduce JCPyV infection at all time points
crossing of the BBB in in vitro models [9]: up to 65%
